Tests used:
COX-1 = biological target: T1, COX-1 (Ovis aries, UniProt P05979); experiment: COX colorimetric inhibitor screening assay (TMPD oxidation), COX-1; type: biochemical; settings: for inhibitory activity on COX-1 (in words): 2 min of incubation; for IC50: read-out: IC50 (µM),(SD) COX-1
T1 construct: purchased Cayman Chemical Company
T1 sequence (P05979 25-600): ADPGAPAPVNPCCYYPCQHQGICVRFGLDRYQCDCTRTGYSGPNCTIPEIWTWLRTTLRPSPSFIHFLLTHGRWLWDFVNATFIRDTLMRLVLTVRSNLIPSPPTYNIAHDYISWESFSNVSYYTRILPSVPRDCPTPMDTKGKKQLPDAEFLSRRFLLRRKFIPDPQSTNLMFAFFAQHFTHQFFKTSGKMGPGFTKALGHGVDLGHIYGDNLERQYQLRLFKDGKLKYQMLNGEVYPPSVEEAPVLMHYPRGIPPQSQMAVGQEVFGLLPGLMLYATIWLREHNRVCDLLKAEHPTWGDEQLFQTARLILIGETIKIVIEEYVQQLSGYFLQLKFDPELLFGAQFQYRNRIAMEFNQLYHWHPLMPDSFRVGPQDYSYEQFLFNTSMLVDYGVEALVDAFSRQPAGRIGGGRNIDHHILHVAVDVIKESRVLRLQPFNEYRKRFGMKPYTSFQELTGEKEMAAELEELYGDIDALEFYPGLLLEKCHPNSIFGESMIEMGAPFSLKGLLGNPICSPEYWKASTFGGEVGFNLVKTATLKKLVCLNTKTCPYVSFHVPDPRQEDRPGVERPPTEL
Experimental: (§1) The compounds were investigated for their potencies to inhibit COX-1 and COX-2 enzymes by the colorimetric inhibitor screening assay.
(§2) Selectivity of the compounds to COX-1 or to COX-2 was assessed by calculation of the IC50 ratios.
(§3) This method allows one to estimate the peroxidase activity of COX by colorimetric monitoring of the occurrence of the oxidized form of N,N,N′,N′-tetramethyl-p-phenylenediamine (TMPD) at 590 nm. TMPD is a substrate for most enzymes with peroxidase activity, and high throughput microplate assays using TMPD allow the rapid screening of a wide range of therapeutics that inhibit COX activity in vitro.
(§4) The test is based on the oxidation of TMPD during the reduction of PGG2 (prostaglandin G2) to PGH2, which is reflected by a change in colour, measured spectrophotometrically (Victor2 microspectrophotometer, PerkinElmer Waltham, MA, USA). The assay uses Tris-HCl buffer (0.1 M assay buffer, pH 8.0), a solution of heme in dimethylsulfoxide (DMSO), enzymes (COX-1, COX-2), arachidonic acid (100 μM), KOH (0.1 M) and a solution of TMPD. The assay mixture contains: 150 µL of assay buffer, 10 µL of heme and 10 µL of COX-1 or COX-2. In order to determine 100% enzyme activity (each COX sample was assayed in triplicate), 10 µL of the substances used as solvents (methanol, ethanol, DMSO) was added to the wells. Ten microlitres of tested inhibitors at appropriate concentrations were added to the other wells. Twenty microlitres of TMPD were added to all wells. The reaction was initiated by the addition of arachidonic acid.
(§5) The effect of tested inhibitors on COX-1 and COX-2 enzyme activity was measured by assaying the rate of TMPD oxidation within 2 min in a spectrophotometer at 590 nm.
(§6) The activity factor at 2 min of incubation with the tested compounds in comparison to the initial activity of the enzyme was determined.

COX-2 = biological target: T2, COX-2 (Homo sapiens, UniProt P35354); experiment: COX colorimetric inhibitor screening assay (TMPD oxidation), COX-2; type: biochemical; settings: for inhibitory activity on COX-2 (in words): 2 min of incubation; for Ratio: COX-2/COX-1: ratio of IC50 values COX-2/COX-1; for IC50: read-out: IC50 (µM),(SD) COX-2
T2 construct: purchased Cayman Chemical Company
T2 sequence (P35354 18-604): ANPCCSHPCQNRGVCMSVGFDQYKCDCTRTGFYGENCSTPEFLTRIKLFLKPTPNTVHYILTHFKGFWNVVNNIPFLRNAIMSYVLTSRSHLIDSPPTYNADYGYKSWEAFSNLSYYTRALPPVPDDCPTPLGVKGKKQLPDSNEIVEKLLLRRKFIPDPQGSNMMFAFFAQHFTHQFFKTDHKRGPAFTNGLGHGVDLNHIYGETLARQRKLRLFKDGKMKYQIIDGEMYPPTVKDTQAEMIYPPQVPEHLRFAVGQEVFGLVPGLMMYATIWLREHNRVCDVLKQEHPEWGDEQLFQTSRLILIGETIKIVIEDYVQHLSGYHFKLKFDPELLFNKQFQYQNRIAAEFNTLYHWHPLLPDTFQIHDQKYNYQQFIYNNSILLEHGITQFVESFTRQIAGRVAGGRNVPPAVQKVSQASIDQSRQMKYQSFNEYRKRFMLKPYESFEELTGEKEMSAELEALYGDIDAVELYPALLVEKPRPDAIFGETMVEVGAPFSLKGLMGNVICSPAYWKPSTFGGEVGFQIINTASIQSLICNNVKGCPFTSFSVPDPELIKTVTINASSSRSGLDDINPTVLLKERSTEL
Experimental: as §1, §2, §3, §4, §5, §6

[1] = tested on: V79 (fibroblast from Chinese hamster lung); experiment: Sulforhodamine B cytotoxicity assay, V79; type: cell-based; settings: Cricetulus griseus, SRB assay, 48 h, mean (SD), n = 3
From the text: (§7) The sulforhodamine B assay was used to estimate the cytotoxic properties of the compounds. The cytotoxic activity of dimethylpyridine derivatives was studied against human cancer cell lines: A549 (pulmonary basal cell alveolar adenocarcinoma) and LoVo (colon adenocarcinoma). Additionally, the effect of compounds on NHDF (normal human dermal fibroblasts) and normal cell line V79 (fibroblast from Chinese hamster lung) was examined.
(§8) Normal human dermal fibroblasts (NHDF) from adult donors were purchased from Lonza (Verviers, Belgium). Normal cell line V79 (fibroblast from Chinese hamster lung) and human cancer cell lines, A549 (pulmonary basal cell alveolar adenocarcinoma) and LoVo (colon adenocarcinoma) were obtained from the European Collection of Authenticated Cell Cultures (ECACC).
(§9) Cells were grown in the culture media recommended by the cell line supplier. Before the test, adherent cells were detached with the trypsin EDTA solution, and FBS-containing medium was used to neutralize the effects of the trypsin/EDTA solution. After that, cells were spun down, counted, stained with a 0.4% solution of trypan blue and inspected under a microscope for cell viability. Then, cells were placed on 96-well plastic culture plates (2 × 10^3 cells/well) and incubated at 37 °C in a CO2-incubator for 24 h. Afterwards, all the tested compounds were added at appropriate final concentrations (100 µM, 50 µM, 20 µM, 10 µM, 5 µM), and the cultures were incubated for 48 h in CO2-incubator at 37 °C. Finally, cells were harvested and intended for the cell proliferation test.
(§10) Cell density/cell proliferation was estimated with the sulforhodamine B (SRB)-colorimetric assay. Briefly, cell cultures were fixed with cold TCA (final concentration 10% (w/v) in cultures of adherent cells for 1 h at 4 °C, then washed four times with tap water and air-dried at room temperature (20–25 °C). A mildly-acidic SRB solution (0.4% dye solution in 1% acetic acid) was added to each well for 30 min at 25 °C. Then, the unbound stain was removed by rinsing with an aqueous solution of 1% (v/v) acetic acid. Culture plates were then allowed to dry at room temperature. The protein-bound dye was dissolved in 10 mM Tris base solution (pH 10.5) for 10 min on a gyratory shaker. Absorbance of the SRB solution was estimated at 540 nm in a Victor 2 microplate reader (Perkin-Elmer, Waltham, MA, USA).

[2] = tested on: LoVo (colon adenocarcinoma); experiment: Sulforhodamine B cytotoxicity assay, LoVo; type: cell-based; settings: Homo sapiens, SRB assay, 48 h, mean (SD), n = 3
From the text: as §7, §8, §9, §10

[3] = tested on: NHDF (normal human dermal fibroblasts); experiment: Sulforhodamine B cytotoxicity assay, NHDF; type: cell-based; settings: SRB assay, 48 h, mean (SD), n = 3
From the text: as §7, §8, §9, §10

[4] = tested on: A549 (pulmonary basal cell alveolar adenocarcinoma); experiment: Sulforhodamine B cytotoxicity assay, A549; type: cell-based; settings: Homo sapiens, SRB assay, 48 h, mean (SD), n = 3
From the text: as §7, §8, §9, §10

Row | Compound | inhibitory activity on COX-1 (in words) (COX-1) | inhibitory activity on COX-2 (in words) (COX-2) | IC50 (COX-1) [µM] | Ratio: COX-2/COX-1 (COX-2) | IC50 (COX-2) [µM] | IC50 [1] [µM] | IC50 [2] [µM] | IC50 [3] [µM] | IC50 [4] [µM]
1 | Cc1cc(C)c(C(=O)NCC(=O)N/N=C/c2cccc3ccccc23)c(S)n1 [PS34, N′-naphtylmethylene derivative] | no inhibitory activity | no inhibitory activity | – | – | – | 421 | – | – | –
2 | Cc1cc(C)c(C(=O)NCC(=O)N/N=C/c2c3ccccc3cc3ccccc23)c(S)n1 [PS35] | no inhibitory activity | no inhibitory activity | – | – | – | 196 | 212 | 202 | –
3 | CN1C(C(=O)Nc2ccccn2)=C(O)c2ccccc2S1(=O)=O [Piroxicam, reference compound] | – | – | – | – | – | 200 | 122 | – | 138
4 | Cc1cnc(NC(=O)C2=C(O)c3ccccc3S(=O)(=O)N2C)s1 [Meloxicam, reference compound] | – | – | – | – | – | 232 | 125 | 206 | 148
5 | Cc1cc(C)c(C(=O)NCC(=O)N/N=C/c2cc([N+](=O)[O-])ccc2Cl)c(S)n1 [PS39] | no inhibitory activity | no inhibitory activity | – | – | – | 147 | 103 | 391 | 120

Now from value to molecule, other results behind:

Row | inhibitory activity on COX-1 (in words) (COX-1) | inhibitory activity on COX-2 (in words) (COX-2) | IC50 (COX-1) [µM] | Ratio: COX-2/COX-1 (COX-2) | IC50 (COX-2) [µM] | Compound | IC50 [1] [µM] | IC50 [2] [µM] | IC50 [3] [µM] | IC50 [4] [µM]
6 | – | – | 57.3 | 2.4 | 139 | Cc1cc(C)c(C(=O)NCC(=O)N/N=C/c2ccccc2)c(S)n1 [PS18, N′-phenylmethylene derivative] | 275 | 135 | 171 | 154
7 | – | – | 72.8 | 2.4 | 177 | CCOc1ccccc1/C=N/NC(=O)CNC(=O)c1c(C)cc(C)nc1S [PS42] | 162 | 133 | 132 | 140
8 | – | – | 51.8 | 2.8 | 143 | Cc1ccc(/C=N/NC(=O)CNC(=O)c2c(C)cc(C)nc2S)cc1 [PS33, N′-4-methylphenylmethylene derivative] | 178 | 131 | 159 | 156
9 | no inhibitory activity | no inhibitory activity | – | – | – | Cc1cc(C)c(C(=O)NCC(=O)N/N=C/c2ccc(Cl)cc2Cl)c(S)n1 [PS41] | 418 | 154 | 336 | 220
10 | did not show any inhibitory activity | – | – | – | 731 | Cc1cc(C)c(C(=O)NCC(=O)N/N=C/c2ccc([N+](=O)[O-])cc2)c(S)n1 [PS36] | 141 | 99.8 | 144 | 164
11 | no inhibitory activity | no inhibitory activity | – | – | – | Cc1cc(C)c(C(=O)NCC(=O)N/N=C/c2ccc(C(F)(F)F)cc2)c(S)n1 [PS38] | 172 | – | – | 504
